For data set [1] the following is noted: 530 nm LED, 150 mW cm^−2. An excerpt:
This example illustrates cell binding triggered by TTA-UC. Photo-triggered binding of NPTTA-c[R]GDfK to cells by flow cytometry and confocal microscopy, was studied with micelles in which a hydrophilic dye, Lissamine™ rhodamine B (LRB), was covalently bound to the PLA-PEG copolymer (forming PLA-PEG-LRB; FIG. 16).

Data set [2] is described as follows: Photocleavage of c[R]GDfK molecule (400 nm LED, HPLC). The format is physicochemical. The conditions noted are these: PBS. The procedure:
Construction of photo-targeted polymeric micelles. […] The identity of the peaks was further confirmed by mass spectrometry. Approximately 86% of cleavage occurred within 30 s of irradiation at 50 mW cm^−2 (FIG. 2C). At an irradiance as low as 2.3 mW cm^−2, ˜42% of c[R]GDfK was cleaved after 2 min of irradiation.
FIG. 2A. Photocleavage of c[R]GDfK. […] FIG. 2B. UV-visible absorption and fluorescence emission spectra of c[R]GDfK in PBS (pH 7.4). The excitation wavelength for the fluorescence spectrum was 385 nm. FIG. 2C. Photocleavage rate of c[R]GDfK in PBS, as determined by HPLC (detected at 390 nm), after continuous irradiation with 400 nm LED light at 2.3 mW cm^−2 and 50 mW cm^−2 (data are mean+/−SD; n=4). a.u.=arbitrary units. […]
Photocleavage of c[R]GDfK molecule. A disposable macro fluorescence cuvette containing 400 microliters of c[R]GDfK PBS solution (50 microgram/mL) was irradiated under an 11-mm LED (400 nm) collimator with a Multi-channel Universal LED controller (Mightex Systems, CA, USA). […] The LED irradiance was measured with a PM100USB Power and Energy Meter (ThorLabs, NJ, USA). At each irradiation time point, 50 microliters of the irradiated solution was analyzed by reverse-phase high-performance liquid chromatography (RP-HPLC) with an Agilent 1260 Infinity LC system and a Poroshell 120 EC-C18 column (4.6×100 mm) (Agilent Technologies, CA, USA). […]

Data set [3] is described as follows: Photocleavage of DEACM from NPTTA-c[R]GDfK (530 nm LED, centrifugal filtrate). The format is physicochemical. The following applies: HPLC of filtrate. The procedure: Photocleavage of DEACM from NPTTA-c[R]GDfK. One milliliter of NPTTA-c[R]GDfK solution (1 mg mL^−1) was put in a quartz cuvette and irradiated with LED light (530 nm, 150 mW cm^−2). At each irradiation time, the solution was put in an Amicon® Ultra centrifugal filter (50,000 Da cut-off) and centrifuged at 4000 rmp for 15 min. […]
Photocleavage of DEACM from NPTTA-c[R]GDfK. […] At each irradiation time, the solution was transferred into an Amicon® Ultra centrifugal filter (MWCO: 50,000 Da) and centrifuged at 4000 rmp for 15 min. […]

Data on 2 molecules can be found in patent US20180311353A1, “TRIPLET-TRIPLET ANNIHILATION-BASED UPCONVERSION” (Children's Medical Center Corporation, priority 2015, published 2018).

As for `CCN(CC)c1ccc2c(-c3ccc(S(=O)(=O)NCCN)cc3S(=O)(=O)O)c3ccc(=[N+](CC)CC)cc-3oc2c1.O=C(O)C(F)(F)F` [LRB, Lissamine™ rhodamine B ethylenediamine], the “photostable under irradiation, time” value in data set [1] is reported as “at least 10 min”.
As for c[R]GDfK, in data set [2] (2.3 mW cm^−2, after 2 min), the “c[R]GDfK cleaved” value was ~42%. Moreover, the “cleavage of c[R]GDfK” value in data set [2] (50 mW cm^−2, within 30 s, 50 microgram/mL) is listed as “Approximately 86%”. Also, the “photocleavage of DEACM on 530 nm irradiation” value in data set [3] was “did not cleave DEACM from c[R]GDfK”.
